# What was measured:
# HMG-CoA reductase = biological target: T1, HMG-CoA reductase (Rattus norvegicus, UniProt P51639); settings: compound at 10^−3 M; cited from earlier work
# T1 sequence (P51639 1-887): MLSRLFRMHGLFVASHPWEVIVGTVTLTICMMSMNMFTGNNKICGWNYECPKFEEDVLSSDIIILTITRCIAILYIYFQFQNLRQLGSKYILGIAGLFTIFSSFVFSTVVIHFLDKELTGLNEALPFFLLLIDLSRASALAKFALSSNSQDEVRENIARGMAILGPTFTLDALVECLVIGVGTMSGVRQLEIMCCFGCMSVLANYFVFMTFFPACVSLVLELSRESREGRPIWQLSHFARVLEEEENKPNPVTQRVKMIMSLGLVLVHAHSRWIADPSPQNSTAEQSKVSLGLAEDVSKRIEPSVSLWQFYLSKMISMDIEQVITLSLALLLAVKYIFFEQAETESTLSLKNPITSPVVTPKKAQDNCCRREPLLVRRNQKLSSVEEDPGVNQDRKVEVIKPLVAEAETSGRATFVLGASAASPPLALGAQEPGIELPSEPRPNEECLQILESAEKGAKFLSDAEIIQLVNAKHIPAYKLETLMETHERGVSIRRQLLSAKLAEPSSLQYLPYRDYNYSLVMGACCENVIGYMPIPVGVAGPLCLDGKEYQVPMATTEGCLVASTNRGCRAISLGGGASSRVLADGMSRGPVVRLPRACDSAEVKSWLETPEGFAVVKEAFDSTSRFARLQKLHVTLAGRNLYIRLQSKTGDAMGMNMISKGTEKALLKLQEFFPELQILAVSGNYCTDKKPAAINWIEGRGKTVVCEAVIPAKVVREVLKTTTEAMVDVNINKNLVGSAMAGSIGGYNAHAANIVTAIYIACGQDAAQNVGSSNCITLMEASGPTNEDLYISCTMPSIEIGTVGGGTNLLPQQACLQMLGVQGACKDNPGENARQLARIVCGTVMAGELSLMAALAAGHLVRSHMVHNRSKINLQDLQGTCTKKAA
# [1] = tested on: Experimental autoimmune encephalomyelitis (EAE) in SJL/J mice; test: EAE mouse model, clinical assessment (day of onset); assay type: in vivo
# Procedure: To induce EAE, five-to-seven week old SJL/J (H-2S) female mice (Charles River; Wilmington, Mass.) were immunized subcutaneously with 200 μg PLP139-151 in a 0.2 mL emulsion comprised of equal volumes of phosphate-buffered saline (PBS) and complete Freund's adjuvant (CFA) containing killed Mycobacterium Tuberculosis strain H37RA (at a final concentration of 4 mg/ml, Difco, Detroit, Mich.). PLP139-151/CFA was administered to regions above the shoulder and the flanks (4 sites total; 50 μL at each injection site). In addition, 200 ng of pertussis toxin (List Biological Laboratories, Campbell, Calif.) was injected intraperitoneally on the day of immunization and 2 days post immunization.
# Mice received intravenous injections of vehicle (PBS), HMG (25 μmol/mouse), or PLP-BPI (100 nmol/mouse) on days 4, 7, and 10 (n=6 per treatment group).
# [2] = tested on: serum cytokines and chemokines; test: Serum cytokine and chemokine levels in EAE mice (multiplex ELISA array); assay type: in vivo, mouse
# Procedure: FIG. 7 depicts serum levels of cytokines and chemokines in various treatment groups (PBS only control, PLP-BPI-treated, and HMG-treated) 14 days after immunization with PLP139-151/CFA to induce EAE. Data represent the mean±standard deviation. Statistical significance was determined by one way Analysis of Variance followed by post-hoc testing using the Tukey test.
# Blood samples were collected from the facial vein in PBS-, HMG-, and PLP-BPI-treated mice on day 14 and day 28 (n=3 per group). Blood samples were allowed to clot overnight at 2-8° C. before centrifuging for 10 min at 2000×g. Serum was removed and stored at −80° C. until measurement of cytokines and chemokines was performed by a commercial analytical services laboratory.
# The levels of key cytokines and chemokines were measured by multiplex ELISA array by a commercial analytical laboratory.
Structure (SMILES),in vitro inhibition of HMGR @10^−3 M (HMG-CoA reductase),"Disease phenotype as compared to vehicle only ([1]; EAE mice, i.v. on days 4, 7, 10)","Delay of average day of onset of EAE as compared to PBS treated mice ([1]; SJL/J mice, HMG 25 μmol/mouse i.v. on days 4, 7, 10)","Day of onset of EAE (day when EAE clinical score is one or more) ([1]; SJL/J mice, i.v. on days 4, 7, 10, HMG 25 μmol/mouse, PLP-BPI 100 nmol/mouse, PBS group day 11) [days]","Serum RANTES level ([2]; day 14, compared to PBS group)","Serum IFN gamma concentration ([2]; day 14, compared to PBS- or PLP-BPI-treated mice)","Serum IL-17 level ([2]; day 14, compared to PLP-BPI-treated animals)","Inflammation as measured by levels of some cytokines ([2]; day 14, versus PBS only)","Serum IL-1 alpha level ([2]; day 14 after immunization, compared to PBS group)"
CCCCCCCCCCCCCCCC(O)(CC(=O)O)CC(=O)O [3j],99,,,,,,,,
"CC(O)(CC(=O)O)CC(=O)O [HMG, 3-hydroxy-3-methylglutaric acid]",,ameliorated disease phenotype,about 2 days,13,statistically significant reductions,much lower,significantly lower,reduced inflammation,statistically significant reductions
CCCCCCCCCCCCCCCCCCCC(O)(CC(=O)O)CC(=O)O [3m],86,,,,,,,,

# From US20120121554A1, “HMG-COA SECONDARY METABOLITES AND USES THEREOF” (EDENSPACE SYSTEMS CORPORATION, priority 2009, published 2012)
